Data set [1] in a line: Tolerability of daily i.p. injections with necropsy. The data set is classed as in vivo, wild-type mice. To be noted: ≦50 mg/kg i.p. daily, 16 days.
In data set [2] the test system is RasGRF1, GluA1, GluA2, p-ERK, p-Elk. Put plainly: Western blot of cortex and hippocampus, 3× Tg AD mice. The data set is classed as in vivo. As to the method: Western blot and analysis. 3× Tg AD mice were injected with 30 mg/kg BTA-EG4 or vehicle daily for 2 weeks. After 2 weeks, the cortex and hippocampus were dissected and homogenized with RIPA buffer. Brain lysates were reduced, boiled, and run on a polyacrylamide gel followed by transfer onto nitrocellulose membrane and incubation in the following primary antibodies: rabbit anti-RasGRF1 (Santa Cruz, C-20), rabbit anti-GluA1 (Millipore, ab1504),mouse anti-GluA2 (Neuromab), rabbit anti-p-ERK (Invitrogen, 36880), or p-Elk (Cell Signal, 9181). Primary antibodies were applied overnight, washed with TBS buffer (3 washes, 5 min each), and HRP conjugated secondary antibodies were applied for 1 h. After 1 h, membranes were washed with TBS buffer (3 washes, 5 min each) and proteins were visualized by affixing the blots to autoradiography film. The density of each band was then quantified using ImageJ software (National Institutes of Health, […].) as a percentage of control following normalization to β-actin.
(In general: Immunoblotting shows a protein as a band on a membrane.)

Data set [3] relates to Aβ. The experiment in a line: Aβ ELISA, brain of injected wild-type mice. The data set is classed as in vivo. To be noted: 15 or 30 mg/kg i.p. daily for 2 weeks (both doses). As to the method: (§1) Aβ ELISA. Mouse brains were homogenized in tissue homogenization buffer containing 250 mM sucrose, 20 mM Tris base, protease, and phosphatase inhibitors. To measure soluble Aβ, DEA extraction was performed. Crude 10% homogenate was mixed with an equal volume of 0.4% diethylamine (DEA), sonicated, and ultracentrifuged for 1 hr at 100,000×g. The supernatant was collected and neutralized with 10% 0.5 M Tris, pH 6.8. Sensitive and specific ELISAs to rodent Aβ1-40 was purchased from IBL Transatlantic (Toronto, Canada) and conducted per the manufacturer's protocol.
(§2) To test whether BTA-EG4 alters Aβ production in vitro, primary cortical neurons were treated with BTA-EG4 (1 or 5 μM) or control (10% DMSO), and Aβ levels were measured using ELISA. […] We then examined whether BTA-EG4 can alter Aβ levels in vivo by injecting wild-type mice daily for 2 weeks with BTA-EG4 (15 or 30 mg/kg, 10% DMSO in saline, i.p.). […] Furthermore, BTA-EG4 altered APP processing in vivo, as monitored by increased sAPPα (α-secretase cleavage product) and decreased sAPPβ (β-secretase cleavage product) levels in BTA-EG4 injected wild-type mice (30 mg/kg, i.p) compared to control-injected mice (FIGS. 1E, 1F).
A general note: ELISA stands for enzyme-linked immunosorbent assay.

Data set [4] relates to Aβ. Put plainly: Aβ ELISA, conditioned media of primary cortical neurons. Type of data set: cell-based. To be noted: 1 or 5 μM, 24 h, vs control (10% DMSO). As to the method: as §1, §2
The test system of data set [5] is primary hippocampal neurons. The experiment in a line: Dendritic spine density in transfected primary hippocampal neurons. The data set is classed as cell-based, Sprague-Dawley rats. As to conditions: 5 μM. As to the method: (§3) Primary neuron culture and immunostaining. Primary hippocampal neurons from E19 Sprague-Dawley rats were cultured at 150 cells/mm^2 as previously described (Pak et al., 2001). Neurons were transfected using Lipofectamine™ 2000 (Invitrogen, Carlsbad, Calif., USA) or calcium phosphate precipitation with GFP+PLL, GFP+APP shRNA, or GFP+APP and treated with BTA-EG4. The following antibodies were used: mouse anti-GFP (Novus Biologicals, 9F9.F9), rabbit anti-GFP (Invitrogen, A11122), rabbit anti-GluR1 (Calbiochem, PC246), mouse anti-GluR2 (BD Pharmagen, 556341), mouse anti-postsynaptic density (PSD)-95 (NeuroMabs, Davis, Calif., USA), mouse anti-Synaptophysin (Sigma Aldrich, s5768), rabbit APP N-terminal (Sigma-Aldrich, A8967), anti-Ras (BD Biosciences, 610001), anti-RasGRF1 (Santa Cruz, C-20; BD Biosciences, 610149), anti-ERK1/2 (Cell Signaling, 4695), anti-p-ERK1/2 (Invitrogen, 36880), anti-CREB (Cell Signaling, D76D11), anti-p-CREB (Millipore, 06-519), and mouse anti-c-Myc (Novus Biologicals, 9E10). Cultured hippocampal neuron images were acquired by LSM 510 laser scanning confocal microscope (Zeiss). Confocal zseries image stacks encompassing entire dendrite segments were analyzed using MetaMorph software (Universal Imaging Corporation, Downington, Pa., USA).
To examine whether BTA-EG4 acts through APP to increase dendritic spine density, we acutely knocked down APP using shRNA in primary hippocampal neurons. APP shRNA was cotransfected with GFP to visualize dendritic spines, and control cultures were transfected with GFP and PLL (control vector for shRNA construct). We then treated both cultures with BTA-EG4 (5 μM) or vehicle. […] To confirm this finding in vivo, we examined the effect of BTA-EG4 on dendritic spine density in APP knockout (KO) mice. APP-KO mice were injected with BTA-EG4 (30 mg/kg) or vehicle for 2 weeks, and Golgi analysis was conducted on hippocampal CA1 neurons.
To examine whether the effect of BTA-EG4 on dendritic spine formation is Ras dependent, primary hippocampal neurons were transfected with GFP and RasGRF1 shRNA, or GFP and PLL. After 24 h, we treated with BTA-EG4 (5 μM) or control for another 24 h, and spine density was measured using immunofluorescence. […] After 24 h, we then treated neurons with BTA-EG4 (5 μM) or control for 24 h, and spine density was measured. Ras-WT alone or combined with BTA-EG4 increased dendritic spine density compared with control (FIGS. 7K, 7L).

The subject of another data set is T1, APP.
T1 construct: expressed in transfected cells; host or cells: primary hippocampal neurons from E19 Sprague-Dawley rats
The experiment in a line: Live cell surface immunostaining, primary hippocampal neurons. Type of data set: cell-based, Sprague-Dawley rats. To be noted: 5 μM, 24 h. The method, then:
as §3
Live cell surface immunostaining. […] Surface-labeled APP was detected with ALEXA FLUORO-555 secondary antibodies. […]

For data set [6] the following is noted: Capule and Yang, 2012; Inbar et al., 2006; cited from earlier work.
Setting [7] is: hippocampus, 6-10 months, 30 mg/kg daily, 2 weeks.

T1 sequence (P05067 18-770): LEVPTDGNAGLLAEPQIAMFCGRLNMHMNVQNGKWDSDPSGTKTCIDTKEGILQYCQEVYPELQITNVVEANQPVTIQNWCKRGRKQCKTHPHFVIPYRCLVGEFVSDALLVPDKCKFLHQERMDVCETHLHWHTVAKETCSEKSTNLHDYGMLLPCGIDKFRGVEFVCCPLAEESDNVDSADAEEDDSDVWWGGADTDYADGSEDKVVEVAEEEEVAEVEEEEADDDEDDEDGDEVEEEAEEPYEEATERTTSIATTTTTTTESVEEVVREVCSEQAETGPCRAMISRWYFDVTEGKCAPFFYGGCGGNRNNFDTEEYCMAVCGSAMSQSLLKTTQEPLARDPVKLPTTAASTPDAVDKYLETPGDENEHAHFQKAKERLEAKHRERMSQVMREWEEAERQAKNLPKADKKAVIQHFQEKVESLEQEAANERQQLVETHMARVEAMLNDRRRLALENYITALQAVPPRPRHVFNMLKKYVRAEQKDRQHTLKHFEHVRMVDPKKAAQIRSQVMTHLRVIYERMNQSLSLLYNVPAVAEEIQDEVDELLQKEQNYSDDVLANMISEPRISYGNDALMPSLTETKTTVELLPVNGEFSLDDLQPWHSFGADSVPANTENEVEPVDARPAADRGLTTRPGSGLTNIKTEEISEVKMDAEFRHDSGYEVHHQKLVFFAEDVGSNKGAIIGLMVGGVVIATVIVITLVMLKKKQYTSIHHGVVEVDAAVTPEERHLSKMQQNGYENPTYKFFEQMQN

BTA-EG4: the necropsy findings entry in data set [1] was “no adverse effects on major organs”. Moreover, the “tolerability of daily injections” value in data set [1] is on record as “well tolerated”. In addition, the “levels of p-Elk” value in data set [2] (6-10 months) and in data set [2] (13-16 months) was “did not alter” throughout. For the same substance, the “levels of p-ERK and ERK” value in data set [2] (cortex and hippocampus, 6-10 months, 30 mg/kg daily, 2 weeks) was “did not have altered levels”. For the same substance, the “levels of AMPA receptor subunits” value in data set [2] (cortex and hippocampus, 13-16 months) is “no statistically significant change”. In addition, the GluA2 levels entry in data set [2] (cortex, 6-10 months, 30 mg/kg daily, 2 weeks) is recorded as “only a trend of an increase”; in data set [2] (setting [7]) it was “increased”. The GluA1 levels entry in data set [2] (setting [7]) is “without a significant change”. In the data set on Aβ [3], the “Aβ peptide levels in brain” value is recorded as “significantly decreased”. The Aβ protein levels result in the data set on Aβ [4] was “significantly decreased”. The dendritic spine density entry in data set [5] (24 h, GFP and PLL control vector) is “significantly increased”; in data set [5] (24 h, RasGRF1 knockdown), “prevented the effect”; in data set [5] (24 h, combined with Ras-WT, vs control), “increased”; in data set [5] (24 h, in the presence of RasN17), “could no longer increase”; in data set [5] (knockdown of APP (APP shRNA)) it was “prevented the increase”. The “cell surface levels of APP” value in the data set on APP is reported as “increased”. Moreover, the “total levels of APP” value with APP was “without affecting”. Moreover, the blood-brain barrier penetration result in data set [6] is “can penetrate the blood-brain barrier”. The toxicity result in data set [6] is recorded as “no toxicity”.

These data come from patent publication US20160000762A1, “IMPROVING COGNITIVE FUNCTION” (THE REGENTS OF THE UNIVERSITY OF CALIFORNIA, priority 2013, published 2016).
